Measured values: patent US20140378409A1, “EFFECT POTENTIATOR FOR ANTITUMOR AGENTS” (TAIHO PHARMACEUTICAL CO., LTD., priority 2011, published 2014)
Structures can show the parent of a compound that is named as a salt.

Key:
[1] = test system: human colorectal cancer cell line HT-29; assay: Antitumor effect potentiating activity for irinotecan hydrochloride, HT-29 subcutaneously transplanted model (nude mice); assay type: in vivo, human; nude mice; details: HT-29, nude mice, Day 15
Experimental: (§1) As an index of the antitumor effect, the TV on Day 15 was measured for each medicament treated group, and the relative tumor volume (RTV) for Day 1 and T/C (%) were calculated by the following formulas to evaluate the antitumor effect.
(§2) TV (mm^3)=(Major axis×minor axis^2)/2
(§3) RTV=(TV on Day 15)/(TV on Day 1)
(§4) T/C (%)=(Mean RTV value of test solution administered group)/(mean RTV value of control group)×100
(§5) Furthermore, as an index of toxicity, the body weight [BW] was measured over time, and the mean body weight change [BWC (%)] up to Day 15 with respect to Day 1 was calculated by the following formula (n: day of body weight measurement carried out at a rate of two times/week, and the final day of measurement corresponds to Day 15, which is the final evaluation day).
(§6) BWC (%)=[(BW on Day n)−(BW on Day 1)]/(BW on Day 1)×100

[2] = test system: human gastric cancer cell line NCI-N87; assay: Antitumor effect potentiating activity for lapatinib, NCI-N87 subcutaneously transplanted model (nude mice); assay type: in vivo, human; nude mice; details: 14 days
Experimental: as §1, §2, §3, §4
A human gastric cancer cell line (NCI-N87) was transplanted into the right chest of a 5- to 6-week old male BALB/cA Jcl-nu mouse, and the mouse was used in the same manner as described in Test Example 1. The test solution for a lapatinib (manufactured by LC Laboratories, Inc.) single administration group was prepared such that the amount of administration would be 100 mg/kg/day. Furthermore, the test solution of the compound (1) was prepared such that the amount of administration would be 200 mg/kg/day of the compound (1).
(§7) The compound (1) and lapatinib were orally administered every day for 14 consecutive days from Day 1. In a combined administration group, 200 mg/kg/day of the compound (1) and 100 mg/kg/day of lapatinib were administered, and the effects were evaluated in the same manner as described in Test Example 1.

[3] = test system: human lung cancer cell line NCI-H441; assay: Antitumor effect potentiating activity for gemcitabine hydrochloride, NCI-H441 subcutaneously transplanted model (nude mice); assay type: in vivo, human; nude mice
Experimental: as §1, §2, §3, §4
A human lung cancer cell line (NCI-H441) was transplanted into the right chest of a 5- to 6-week old male BALB/cA Jcl-nu mouse, and the mouse was used in the same manner as described in Test Example 1.
The test solution for a gemcitabine hydrochloride (GEMZAR, manufactured by Eli Lilly and Co.) single administration group was prepared such that the administered dose would be 240 mg/kg/day. Furthermore, the test solution of the compound (1) was prepared such that the administered dose would be 200 mg/kg/day.
as §7, with “was” for “and lapatinib were”, “1, and gemcitabine hydrochloride was administered on Day 1 and Day 8 through the mouse tail vein. Ina” for “1. In a”, “240” for “100”, “gemcitabine hydrochloride” for “lapatinib”

[4] = test system: human lung cancer cell line NCI-H460; assay: Antitumor effect potentiating activity for paclitaxel, NCI-H460 subcutaneously transplanted model (nude mice); assay type: in vivo, human; nude mice
Experimental: A human lung cancer cell line (NCI-H460) was transplanted into the right chest of a 5- to 6-week old male BALB/cA Jcl-nu mouse. After the tumor transplantation, the major axis (mm) and the minor axis (mm) of the tumor were measured to calculate the tumor volume (TV), and then mice were allocated to each treatment group such that the average TV's of each group would be uniform. The day on which this grouping (n=5) was performed was designated as Day 1.
The test solution for a paclitaxel (TAXOL injection, Bristol Myers K.K.) single administration group was prepared such that the administered dose of paclitaxel would be 60 mg/kg/day. Furthermore, the test solution for a compound (1) single administration group was prepared such that the administered dose would be 200 mg/kg/day. The compound (1) was orally administered every day for 14 consecutive days from Day 1, and paclitaxel was administered on Day 1 through the mouse tail vein. In a combined administration group, 200 mg/kg/day of the compound (1) and 60 mg/kg/day of paclitaxel were administered.
as §1, §2, §3, §4, §5, §6

[5] = test system: human gastric cancer cell line NUGC-4; assay: Antitumor effect potentiating activity for TS-1, NUGC-4 subcutaneously transplanted model (nude rats); assay type: in vivo, human; nude rats; details: NUGC-4, nude rats, Day 15, 14 days
Experimental: as §1, §2, §3, §4
A human gastric cancer cell line (NUGC-4) was transplanted into the right chest of a 5- to 6-week old male nude rat, and the rat was used in the same manner as described in Test Example 1. The test solution for a TS-1 (TS-1, manufactured by Taiho Pharmaceutical Co., Ltd.) single administration group was prepared such that the amount of administration of tegafur would be 18 mg/kg/day. Furthermore, the test solution of the compound (1) was prepared such that the amount of administration would be 250 mg/kg/day and 50 mg/kg/day.
as §7, with “TS-1” for “lapatinib”, “250 mg/kg/day and 50” for “200”, “18” for “100”

[6] = test system: human gastric cancer cell line NUGC-4; assay: Antitumor effect potentiating activity for paclitaxel, NUGC-4 subcutaneously transplanted model (nude mice); assay type: in vivo, human; nude mice; details: NUGC-4, nude mice, Day 15
Experimental: as §1, §2, §3, §4, §5, §6
A human gastric cancer cell line (NUGC-4) was transplanted into the right chest of a 5- to 6-week old male BALB/cA Jcl-nu mouse, and the mouse was used in the same manner as described in Test Example 1.
The test solution for a paclitaxel (TAXOL injection, manufactured by Bristol Myers K.K.) single administration group was prepared such that the amount of administration of paclitaxel would be 60 mg/kg/day.
The test solution of the compound (1) was prepared such that the amount of administration would be 12.5 mg/kg/day of the compound (1). In a combined administration group, 12.5 mg/kg/day of the compound (1) and 60 mg/kg/day of paclitaxel were administered. The compound (1) was orally administered every day for 14 consecutive days from Day 1, paclitaxel was administered on Day 1 through the mouse tail vein, and evaluation was made in the same manner as described in Test Example 1.
Furthermore, the body weight changes over time, which is an indicator of toxicity, were also evaluated in the same manner as described in Test Example 1.

[7] = Day 15, lapatinib 100 mg/kg/day oral
[8] = Day 15, 240 mg/kg/day, tail vein Day 1 and Day 8
[9] = Day 15, 200 mg/kg/day oral, 14 consecutive days
[10] = Day 15, paclitaxel 60 mg/kg/day, tail vein Day 1
[11] = paclitaxel 60 mg/kg/day, tail vein Day 1

Which “RTV (mean ± standard deviation)” value ([1]; 50 mg/kg/day, tail vein Day 1, Day 5, Day 9) does the source give for `CCc1c2c(nc3ccc(OC(=O)N4CCC(N5CCCCC5)CC4)cc13)-c1cc3c(c(=O)n1C2)COC(=O)[C@]3(O)CC` [Irinotecan hydrochloride, irinotecan hydrochloride, reference compound] here?
Its value is 2.47 ± 0.40.

Which “RTV (mean ± standard deviation)” value [2, 7] does the source give for `CS(=O)(=O)CCNCc1ccc(-c2ccc3ncnc(Nc4ccc(OCc5cccc(F)c5)c(Cl)c4)c3c2)o1` [Lapatinib, lapatinib, reference compound] here?
Its value is 1.56 ± 0.18.

What about the “T/C (%)” value [2, 7] of the same compound?
Its value is 62%.

Which results are given for `Nc1ccn([C@@H]2O[C@H](CO)[C@@H](O)C2(F)F)c(=O)n1` [Gemcitabine hydrochloride, gemcitabine hydrochloride, reference compound]?
RTV (mean ± standard deviation) [3, 8]: 1.10 ± 0.13; T/C (%) [3, 8]: 16%

`CNC(=O)c1cc2c(Oc3ccc(NC(=S)NC(=O)Cc4ccccc4)cc3F)ccnc2cc1OC` [compound (1), 4-(2-Fluoro-4-(3-(2-phenylacetyl)thioureido)phenoxy)-7-methoxy-N-methylquinoline-6-carboxamide] was tested. Which “RTV (mean ± standard deviation)” value [4, 9] did it give?
Its value is 3.02 ± 0.63.

And the “T/C (%)” value [4, 9]?
Its value is 34%.

And the “RTV (mean ± standard deviation)” value [3, 9]?
The value was 1.26 ± 0.15.

What about the “T/C (%)” value [3, 9] of the same compound?
Its value is 18%.

What about the “RTV (mean ± standard deviation)” value ([5]; 50 mg/kg/day oral) of the same compound?
Its value is 2.36 ± 0.44.

What about the “T/C (%)” value ([5]; 50 mg/kg/day oral) of the same compound?
The value was 14%.

And the “RTV (mean ± standard deviation)” value ([5]; 250 mg/kg/day oral)?
Its value is 1.60 ± 0.33.

And the “T/C (%)” value ([5]; 250 mg/kg/day oral)?
The value was 10%.

What about the “RTV (mean ± standard deviation)” value ([2]; Day 15, 200 mg/kg/day oral) of the same compound?
The value was 1.31 ± 0.23.

And the “T/C (%)” value ([2]; Day 15, 200 mg/kg/day oral)?
Its value is 52%.

And the “RTV (mean ± standard deviation)” value ([1]; 50 mg/kg/day oral, 14 days)?
The value was 1.83 ± 0.29.

What about the “T/C (%)” value ([1]; 50 mg/kg/day oral, 14 days) of the same compound?
The value was 44%.

And the “RTV (mean ± standard deviation)” value ([6]; 12.5 mg/kg/day oral, 14 days)?
Its value is 6.63 ± 1.91.

And the “T/C (%)” value ([6]; 12.5 mg/kg/day oral, 14 days)?
Its value is 95%.

How did the “RTV (mean ± standard deviation)” value [4, 10] turn out when `CC(=O)O[C@H]1C(=O)[C@@]2(C)[C@H]([C@H](OC(=O)c3ccccc3)[C@]3(O)C[C@H](OC(=O)[C@H](O)[C@@H](NC(=O)c4ccccc4)c4ccccc4)C(C)=C1C3(C)C)[C@]1(OC(C)=O)CO[C@@H]1C[C@@H]2O` [Paclitaxel, paclitaxel, reference compound] was run?
Its value is 3.67 ± 0.42.

And the “T/C (%)” value [4, 10]?
Its value is 41%.

What about the “RTV (mean ± standard deviation)” value [6, 11] of the same compound?
Its value is 5.77 ± 0.96.

What about the “T/C (%)” value [6, 11] of the same compound?
The value was 83%.
